{"source": "patent US20050118594A1", "about": "“Enzymes” (priority 2001, published 2005)", "origin": "cited, not measured here", "key": {"[1]": {"conditions": "mild hypertriglyceridemia (e.g., triglycerides <400 mg/dl)"}}, "data": [{"compound": "Cc1ccc(C)c(OCCCC(C)(C)C(=O)O)c1", "note": "[gemfibrozil]", "values": [{"measurement": "decrease in triglyceride levels", "setting": "[1]", "result": "≥ 50", "unit": "%"}, {"measurement": "increase in HDL cholesterol concentrations", "setting": "[1]", "result": "15-25%"}, {"measurement": "change in LDL cholesterol levels", "setting": "mild hypertriglyceridemia, particularly in subjects with familial combined hyperlipidemia", "result": "either no change or an increase"}, {"measurement": "decrease in LDL levels", "setting": "patients with heterozygous familial hypercholesterolemia", "result": 10, "unit": "%"}]}, {"compound": "CC(C)(Oc1ccc(C2CC2(Cl)Cl)cc1)C(=O)O", "note": "(centres unmarked) [ciprofibrate]", "values": [{"measurement": "lowering of VLDL levels", "setting": "second generation agents, compared with gemfibrozil", "result": "to a degree similar to that produced by gemfibrozil"}]}]}
